Results on six molecules are retold here after patent US20250368648A1, “MULTI-CYCLIC IRAK AND FLT3 INHIBITING COMPOUNDS AND USES THEREOF” (CHILDREN'S HOSPITAL MEDICAL CENTER, priority 2022, published 2025).

A value given as a limit tells only on which side of the number the result lay.

The target in one assay is T1, FLT3 (Homo sapiens, UniProt P36888).
T1 sequence (P36888 27-993): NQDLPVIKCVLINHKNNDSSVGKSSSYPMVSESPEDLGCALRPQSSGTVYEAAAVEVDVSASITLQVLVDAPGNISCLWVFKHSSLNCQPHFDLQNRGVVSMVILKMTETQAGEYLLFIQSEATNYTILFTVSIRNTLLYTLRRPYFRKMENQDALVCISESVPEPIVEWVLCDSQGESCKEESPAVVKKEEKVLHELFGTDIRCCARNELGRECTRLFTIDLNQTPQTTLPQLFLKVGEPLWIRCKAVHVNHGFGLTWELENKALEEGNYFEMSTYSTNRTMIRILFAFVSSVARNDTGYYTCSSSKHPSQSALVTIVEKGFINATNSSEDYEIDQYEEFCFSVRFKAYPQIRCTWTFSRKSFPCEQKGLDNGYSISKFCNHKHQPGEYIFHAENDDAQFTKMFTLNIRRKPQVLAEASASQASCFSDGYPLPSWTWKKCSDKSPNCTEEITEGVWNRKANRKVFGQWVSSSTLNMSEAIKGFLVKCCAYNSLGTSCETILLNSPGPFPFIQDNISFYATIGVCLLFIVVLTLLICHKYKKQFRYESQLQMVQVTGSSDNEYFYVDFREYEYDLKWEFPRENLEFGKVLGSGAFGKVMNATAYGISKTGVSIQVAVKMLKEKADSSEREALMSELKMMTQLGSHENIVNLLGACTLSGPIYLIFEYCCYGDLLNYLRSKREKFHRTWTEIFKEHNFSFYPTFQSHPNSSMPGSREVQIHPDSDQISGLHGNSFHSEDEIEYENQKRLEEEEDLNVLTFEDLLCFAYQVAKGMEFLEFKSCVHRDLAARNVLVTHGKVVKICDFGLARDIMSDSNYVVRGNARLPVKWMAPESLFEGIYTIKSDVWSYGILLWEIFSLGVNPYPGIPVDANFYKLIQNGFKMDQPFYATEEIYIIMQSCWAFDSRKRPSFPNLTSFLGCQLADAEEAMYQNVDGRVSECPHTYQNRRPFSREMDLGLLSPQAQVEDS
Description: RBC HotSpot Kinase Assay, FLT3. Conditions: HotSpot functional assay, isolated kinase enzyme, 33P-ATP. On the set-up: purchased RBC (Reaction Biology) HotSpot assay. The assay is classed as biochemical. An excerpt: (§1) This assay uses the isolated kinase enzyme. This assay is very useful for determining competition of the inhibitor for ATP and/or substrates and for measuring the kinetics of enzyme inhibition. […] Unlike kinase binding assays that measure competition for ATP, the HotSpot Kinase Assay is a functional assay that measures catalytic activity; as such it measures relative functional potency regardless of the mechanism of enzyme inhibition. This assay uses the form of the various enzymes that are easiest to express, which may not necessarily be the form of the enzyme that exist in the cell. (Sometimes the carboxy terminus has been truncated to aid in expression, or, if it is a receptor kinase, the enzyme itself is isolated from the other parts of the receptor that are involved in regulating kinase activity.)
(§2) The reagent used was as follows: Base Reaction buffer; 20 mM Hepes (pH 7.5), 10 mM MgCl2, 1 mM EGTA, 0.01% Brij35, 0.02 mg/mi BSA, 0.1 mM Na3VO4, 2 mM DTT, 1% DMSO. Required cofactors were added individually to each kinase reaction.
(§3) The reaction procedure was as follows: • 1) Substrates were prepared in freshly prepared Reaction Buffer. • 2) Any required cofactors were delivered to the substrate solution above. • 3) Kinase was delivered into the substrate solution and gently mixed. • 4) Compounds were delivered in 100% DMSO into the kinase reaction mixture by Acoustic technology (Echo550, nanoliter range), followed by incubation for 20 min at room temp. • 5) ^33P-ATP was delivered into the reaction mixture to initiate the reaction. • 6) The mixture was incubated for 2 hours at room temperature. • 7) Kinase activity was detected by P81 filter-binding method.

The target of another assay is T2, IRAK1 (Homo sapiens, UniProt P51617).
T2 construct: purchased RBC (Reaction Biology) HotSpot assay
T2 sequence (P51617 whole entry): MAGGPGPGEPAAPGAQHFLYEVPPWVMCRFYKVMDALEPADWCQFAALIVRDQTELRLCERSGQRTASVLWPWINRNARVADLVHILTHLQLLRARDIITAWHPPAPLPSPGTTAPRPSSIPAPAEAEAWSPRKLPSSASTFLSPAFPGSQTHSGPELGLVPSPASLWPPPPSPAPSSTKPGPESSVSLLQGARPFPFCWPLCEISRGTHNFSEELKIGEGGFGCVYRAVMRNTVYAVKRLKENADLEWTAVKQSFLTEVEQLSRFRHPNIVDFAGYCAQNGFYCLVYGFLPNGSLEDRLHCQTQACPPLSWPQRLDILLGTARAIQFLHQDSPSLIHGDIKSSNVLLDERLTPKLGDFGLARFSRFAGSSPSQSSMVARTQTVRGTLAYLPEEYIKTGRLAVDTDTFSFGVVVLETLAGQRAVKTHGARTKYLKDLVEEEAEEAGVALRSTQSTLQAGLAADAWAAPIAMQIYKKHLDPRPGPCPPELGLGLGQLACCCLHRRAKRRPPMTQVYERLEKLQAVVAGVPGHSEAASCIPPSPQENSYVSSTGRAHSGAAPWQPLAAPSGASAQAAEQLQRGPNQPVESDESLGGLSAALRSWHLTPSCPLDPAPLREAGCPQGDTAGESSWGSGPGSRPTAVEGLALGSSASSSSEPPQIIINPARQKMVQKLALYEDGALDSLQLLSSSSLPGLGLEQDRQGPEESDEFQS
The assay can be described thus: RBC HotSpot Kinase Assay, IRAK1. The assay is classed as biochemical. Particulars: HotSpot functional assay, isolated kinase enzyme, 33P-ATP.
Excerpt: as §1, §2, §3

The next assay concerns the target T3, IRAK4 (Homo sapiens, UniProt Q9NWZ3).
T3 sequence (Q9NWZ3 1-460): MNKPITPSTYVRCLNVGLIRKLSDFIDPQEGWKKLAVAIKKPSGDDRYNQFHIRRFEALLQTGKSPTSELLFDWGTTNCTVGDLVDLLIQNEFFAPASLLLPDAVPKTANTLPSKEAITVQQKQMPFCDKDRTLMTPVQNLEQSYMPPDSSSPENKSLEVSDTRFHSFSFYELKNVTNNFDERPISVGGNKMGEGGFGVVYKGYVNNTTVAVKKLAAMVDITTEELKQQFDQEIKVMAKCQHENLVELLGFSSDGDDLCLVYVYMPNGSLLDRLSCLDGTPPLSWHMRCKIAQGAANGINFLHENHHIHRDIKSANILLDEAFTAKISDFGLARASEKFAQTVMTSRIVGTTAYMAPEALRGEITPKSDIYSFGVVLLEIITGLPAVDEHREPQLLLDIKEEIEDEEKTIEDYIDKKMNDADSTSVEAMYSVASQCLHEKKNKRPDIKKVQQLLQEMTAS
The assay can be described thus: RBC HotSpot Kinase Assay, IRAK4. Particulars: HotSpot functional assay, isolated kinase enzyme, 33P-ATP. Type of assay: biochemical. On the set-up: purchased RBC (Reaction Biology) HotSpot assay.
Excerpt: as §1, §2, §3

The next assay deals with THP1 cells. The assay can be described thus: Combination drug screening, Cell Titer Glo, THP1 cells.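 For all read-outs here: luminescence read out in 1536-well plates seeded with 500 THP1 cells per well, each drug spanning a 10-point concentration range in the combination matrix.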 Particulars: THP1 cells; for Excess HSA Score: sum score, 10 × 10 dataset, 48 hours.
For the next assay, the system named is MOLM14 (D835Y) cells. The assay can be described thus: Combination drug screening, Cell Titer Glo, MOLM14 (D835Y) cells.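 For all read-outs here: MOLM14 cells with FLT3 ITD plus D835Y, 500 per well in 1536-well plates, 10-point dose ranges, luminescent viability after 48 h, negative Excess HSA indicates synergy.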 Conditions: MOLM14(D835Y) cells; for Excess HSA Score: sum score, listed as compound in combination with Compound 106, 48 hours.
Where [1] appears, read: listed as compound in combination with CG-806 (a FLT3/BTK inhibitor).
Setting [2] is: listed as compound in combination with Compound 45a.
Where [3] appears, read: listed as compound in combination with Compound 46a.
The mark [4] stands for this setting: listed as compound in combination with Compound 47a.
Setting [5] is: listed as compound in combination with Compound 48a.
The mark [6] stands for this setting: listed as compound in combination with Compound 102.
[7] abbreviates: listed as compound in combination with Compound 106.
[8] abbreviates: listed as compound in combination with Gilteritinib (a FLT3/AXL inhibitor).
[9] abbreviates: listed as compound in combination with PF-06650833 (an IRAK4 selective inhibitor).
Where [10] appears, read: listed as compound in combination with Quizartinib (a FLT3/Kit/PDGFRa inhibitor).
Where [11] appears, read: listed as compound in combination with emavusertib (CA-4948) (a FLT3/IRAK4 inhibitor).
Where [12] appears, read: combination therapy of CG-806 (a FLT3/BTK inhibitor) and the named additional compound, 110 × 10 dataset.
The mark [13] stands for this setting: combination therapy of Compound 45a and the named additional compound, 110 × 10 dataset.
The mark [14] stands for this setting: combination therapy of Compound 46a and the named additional compound, 110 × 10 dataset.
Where [15] appears, read: combination therapy of Compound 47a and the named additional compound, 110 × 10 dataset.
The mark [16] stands for this setting: combination therapy of Compound 48a and the named additional compound, 110 × 10 dataset.
Setting [17] is: combination therapy of Compound 102 and the named additional compound, 10 × 10 dataset.
[18] abbreviates: combination therapy of Gilteritinib (a FLT3/AXL inhibitor) and the named additional compound, 110 × 10 dataset.
The mark [19] stands for this setting: combination therapy of PF-06650833 (an IRAK4 selective inhibitor) and the named additional compound, 110 × 10 dataset.
[20] abbreviates: combination therapy of Quizartinib (a FLT3/Kit/PDGFRa inhibitor) and the named additional compound, 110 × 10 dataset.
Where [21] appears, read: combination therapy of emavusertib (CA-4948) (a FLT3/IRAK4 inhibitor) and the named additional compound, 110 × 10 dataset.

Description for THP1 cells: A smaller concentration indicates higher potency to synergize with Venetoclax. […] The numbers in each cell represent the % response (left) or the Delta Bliss score (right) at each given concentration combination.
A smaller concentration indicates higher potency to synergize with azacitidine. […] The numbers in each cell represent the % response (left) or the Delta Bliss score (right) at each given concentration combination.
This is a cell line that has the FLT3 ITD mutation but also the FLT3 D835Y kinase domain mutation. […] Excess HSA is a measure of synergy vs. additivity or antagonism, wherein a negative Excess HSA value is indicative of synergy.
Briefly, 10 nL of compounds were acoustically dispensed into 1536-well white polystyrene tissue culture-treated plates with an Echo 550 acoustic liquid handler (Labcyte). MOLM14 (D835Y) or THP1 cells were then added to compound-containing plates at a density of 500-cells/well in 5 μL of medium. A 10-point custom concentration range was used for all listed drugs. […] 48h post compound addition, 3 μL of Cell Titer Glo (Promega) were added to each well and plates were incubated at room temperature for 15 minutes with the stainless-steel lid in place. Luminescence readings were taken using a Viewlux imager (PerkinElmer) with a 2 second exposure time per plate.

In the case of `COc1cc2ncc(-c3cc(-c4ccccc4)cc(N[C@@H]4CCCNC4)n3)n2nc1C1CC1` [Compound 55a, (R)-6-(6-cyclopropyl-7-methoxyimidazo[1,2-b]pyridazin-3-yl)-4-phenyl-N-(piperidin-3-yl)pyridin-2-amine], the IC50 is 0.741 µM against FLT3, 4.01 µM on IRAK1 and 4.11 µM on IRAK4.
In the same order, the values of `COc1cc2ncc(-c3nc(N[C@@H]4CCCNC4)c(F)cc3F)n2nc1C1CC2(CCC2)C1` [Compound 11a, (R)-3,5-difluoro-6-(7-methoxy-6-(spiro[3.3]heptan-2-yl)imidazo[1,2-b]pyridazin-3-yl)-N-(piperidin-3-yl)pyridin-2-amine] are less than 0.0005 µM, 0.03 µM and 0.016 µM.
The corresponding values for `COc1cc2ncc(-c3nc(N[C@H]4CNC[C@@H]4F)c(F)cc3F)n2nc1C1CC(C)(C)C1` [Compound 8a, 6-(6-(3,3-dimethylcyclobutyl)-7-methoxyimidazo[1,2-b]pyridazin-3-yl)-3,5-difluoro-N-((3S,4S)-4-fluoropyrrolidin-3-yl)pyridin-2-amine] are 0.0006 µM, 0.19 µM and 0.009 µM.
With `COc1cc2ncc(-c3ccc(C#N)c(N[C@H]4CNC[C@@H]4F)n3)n2nc1C1CC1` [Compound 27a, 6-(6-cyclopropyl-7-methoxyimidazo[1,2-b]pyridazin-3-yl)-2-(((3S,4S)-4-fluoropyrrolidin-3-yl)amino) nicotinonitrile], the figures for the half-maximal inhibitory concentration (IC50) against FLT3, against IRAK1 and against IRAK4 were less than 0.0005 µM, 0.005 µM and less than 0.0005 µM, respectively.
Consider `NC1(C(=O)N[C@@H](CCO)c2ccc(Cl)cc2)CCN(c2nc[nH]c3nccc2-3)CC1` [AZD-5363, capivasertib], for which the Comments entry in the assay with THP1 cells (combination with Compound 48a) and with THP1 cells (combination with emavusertib (CA-4948)) was “Synergistic (a negative Excess HSA value is indicative of synergy)” each time. The “Excess HSA Score” value in the assay with THP1 cells (setting [1]) was −189.8; in the assay with THP1 cells (setting [2]), −1027.6539; with THP1 cells (setting [3]), −276.8; with THP1 cells (setting [4]) it was 124.8; in the assay with THP1 cells (setting [5]) it was −732.6; with THP1 cells (setting [6]) it was −198.6. Further, the “Excess HSA Score” value in the assay on THP1 cells (setting [7]) is on record as −134.3; in the assay on THP1 cells (setting [8]) it was 989.6; in the assay with THP1 cells (setting [9]), −649.7; with THP1 cells (setting [10]), 17.2569; in the assay on THP1 cells (setting [11]) it was −1144.9723; in the assay with MOLM14 (D835Y) cells (10 × 10 dataset), −105.2. The “Comments (synergistic / antagonistic)” value with MOLM14 (D835Y) cells (setting [12]) is “Synergistic (a negative Excess HSA value is indicative of synergy)”. Besides, the “Sum Excess HSA Score” value is on record as −2332 in the assay with MOLM14 (D835Y) cells (setting [12]); −239.9 in the assay on MOLM14 (D835Y) cells (setting [13]); 637.8 with MOLM14 (D835Y) cells (setting [14]); −894 with MOLM14 (D835Y) cells (setting [15]); −939.6 in the assay with MOLM14 (D835Y) cells (setting [16]); −439.3 in the assay with MOLM14 (D835Y) cells (setting [17]). Further, the “Sum Excess HSA Score” value is reported as −966.8597 in the assay on MOLM14 (D835Y) cells (setting [18]), 47.56 in the assay with MOLM14 (D835Y) cells (setting [19]), −1637 in the assay with MOLM14 (D835Y) cells (setting [20]) and −850.1 with MOLM14 (D835Y) cells (setting [21]).
As to `COCC1(CO)C(=O)C2CCN1CC2` (centres unmarked) [Eprenetapopt/APR-246, APR-246 (Eprenetapopt)], the “Excess HSA Score” value in the assay on THP1 cells (setting [1]) is 300.5; in the assay on THP1 cells (setting [2]), −629.2; with THP1 cells (setting [3]), 603.9; in the assay on THP1 cells (setting [4]), −14.7; with THP1 cells (setting [5]), −33.1; in the assay on THP1 cells (setting [6]), 171.5. Moreover, the “Excess HSA Score” value is 268 in the assay on THP1 cells (setting [7]); 365.9 in the assay with THP1 cells (setting [8]); −225.6 in the assay with THP1 cells (setting [9]); 437.691 in the assay on THP1 cells (setting [10]); 482.6 with THP1 cells (setting [11]); −43.15 in the assay on MOLM14 (D835Y) cells (10 × 10 dataset). Moreover, the “Sum Excess HSA Score” value with MOLM14 (D835Y) cells (setting [12]) was −271.7; with MOLM14 (D835Y) cells (setting [13]), 284.5; in the assay on MOLM14 (D835Y) cells (setting [14]) it was −183.2; with MOLM14 (D835Y) cells (setting [15]) it was 366.1; with MOLM14 (D835Y) cells (setting [16]) it was −140.8; in the assay with MOLM14 (D835Y) cells (setting [17]), −55.14. Moreover, the “Sum Excess HSA Score” value in the assay with MOLM14 (D835Y) cells (setting [18]) is 647.6; in the assay with MOLM14 (D835Y) cells (setting [19]), −566; with MOLM14 (D835Y) cells (setting [20]), −652.9; with MOLM14 (D835Y) cells (setting [21]) it was 504.1.
